These results are taken from patent US11142527B2, “Dihydropyrimidine compounds and uses thereof in medicine” (SUNSHINE LAKE PHARMA CO., LTD., priority 2017, dated 2021).

One data set concerns HBV. Kind of data set: Test of anti HBV activity in vitro (viral DNA by qPCR). In kind it is cell-based. The settings on record: Hepatitis B virus; HepG2.2.15 cells, viral DNA in cell culture supernatant by qPCR; read-out: EC50 values of the compound of the invention on viral replication. The protocol: Test 1: Test Method of Calculating Anti HBV EC50
HBV Cell Line and Culture Conditions
HepG2.2.15 (SELLS, PNAS, 1987 and SELLS, JV, 1988) chromosomes have an integrated complete HBV genome, and stably express viral RNA and viral protein. HepG2.2.15 cells can secrete mature HBV particles, HBsAg and HBeAg, to medium. HepG2.2.15 cells were cultured in DMEM containing 10% fetal bovine serum, 100 U/mL penicillin, 100 U/mL streptomycin, 1% non essential amino acid, 1 mM sodium pyruvate and 300 μg/mL G418.
Viral particles DNA secreted from HepG2.2.15 cells can be quantified by qPCR, and the effect of the compound on viral replication can be detected.
Test of Anti HBV Activity In Vitro
8000 HepG 2.2.15 cells per well were seeded into a 96-well plate, the plate was cultured at 37° C. and 5% CO2 for 3 days till the cells grew to full wells. Old liquid medium can be removed and replaced with new medium (200 μL) on day 0.
Formulating the compound and treating the cells in the experiment of anti virus: the compound was dissolved in DMSO to a concentration of 30 mM, and then the compound solution was diluted with DMSO to a concentration of 800 μM, and then eight dilutions at 4 fold were performed, the highest concentration is 800 μM. The serial diluted compound was added to the above plate at 1 μL per well, the highest final concentration in the experiment is 4 μM (200 fold dilution). TDF (tenofovir dipiroxil fumarate, Selleck, Cat S1400) has a highest concentration of 4 μM as a positive control. 1 μL of DMSO was added in to the […] at a final concentration of 0.5%, TDF was added in to the […] at a final concentration of 1 μM.
Detection of Viral Genomic DNA by aPCR
Primer: HBV-For-202, […]; HBV-Rev-315, […]. Copies of virus can be calculated using a standard curve plotted by using plasmid containing HBV genome and using SYBR Premix Ex Taq II—Takara DRR081S kit and 1 μL cell culture supernatant as a template. EC50 values of the compound on viral replication were calculated by a four parametric nonlinear regression model using Graphpad Prism 5 software to manage concentration—viral copy number.
In the case of `COC(=O)C1=C(CN2CCN3C(=O)N(c4ccc(Oc5ccc(C(=O)O)cc5F)cc4F)C[C@@H]3C2)NC(c2nccs2)=N[C@H]1c1ccc(F)cc1Cl` [Example 14, 4-(4-((S)-7-(((R)-6-(2-chloro-4-fluorophenyl)-5-(methoxycarbonyl)-2-(thiazol-2-yl)-3,6-dihydropyrimidin-4-yl)methyl)-3-oxohexahydroimidazo[1,5-a]pyrazin-2(3H)-yl)-3-fluorophenoxy)-3-fluorobenzoic acid], the EC50 (as a rule, the midpoint of the concentration-response curve) is 22.7 nM.

Consider `COC(=O)C1=C(CN2CCN3C(=O)N(c4ccc(-c5ccc(C(=O)O)c(F)c5)cc4F)C[C@@H]3C2)NC(c2nccs2)=N[C@H]1c1ccc(F)cc1Cl` [Example 121, 4′-((S)-7-(((R)-6-(2-chloro-4-fluorophenyl)-5-(methoxycarbonyl)-2-(thiazol-2-yl)-3,6-dihydropyrimidin-4-yl)methyl)-3-oxohexahydroimidazo[1,5-a]pyrazin-2(3H)-yl)-3,3′-difluoro-[1,1′-biphenyl]-4-carboxylic acid], for which the EC50 was found to be 36.4 nM.

Regarding `COC(=O)C1=C(CN2CCN3C(=O)N(c4ccc(-c5ccc(C(=O)O)cc5)cc4F)C[C@@H]3C2)NC(c2nccs2)=N[C@H]1c1ccc(F)cc1Cl` [Example 113, 4′-((S)-7-(((R)-6-(2-chloro-4-fluorophenyl)-5-(methoxycarbonyl)-2-(thiazol-2-yl)-3,6-dihydropyrimidin-4-yl)methyl)-3-oxohexahydroimidazo[1,5-a]pyrazin-2(3H)-yl)-3′-fluoro-[1,1′-biphenyl]-4-carboxylic acid], the EC50 amounted to 23.9 nM.

For the compound `COC(=O)C1=C(CN2CCN3C(=O)N(CC#Cc4cccc(C(=O)O)c4)C[C@@H]3C2)NC(c2nccs2)=N[C@H]1c1ccc(F)cc1Cl` [Example 2, 3-(3-((S)-7-(((R)-6-(2-chloro-4-fluorophenyl)-5-(methoxycarbonyl)-2-(thiazol-2-yl)-3,6-dihydropyrimidin-4-yl)methyl)-3-oxohexahydroimidazo[1,5-a]pyrazin-2(3H)-yl)prop-1-yn-1-yl)benzoic acid], the EC50 was determined as 10.4 nM.

As for `COC(=O)C1=C(CN2CCN3C(=O)N(c4ccc(-c5ccc(C(=O)O)cc5F)cc4)C[C@@H]3C2)NC(c2nccs2)=N[C@H]1c1ccc(F)cc1Cl` [Example 115, 4′-((S)-7-(((R)-6-(2-chloro-4-fluorophenyl)-5-(methoxycarbonyl)-2-(thiazol-2-yl)-3,6-dihydropyrimidin-4-yl)methyl)-3-oxohexahydroimidazo[1,5-a]pyrazin-2(3H)-yl)-2-fluoro-[1,1′-biphenyl]-4-carboxylic acid], the EC50 amounted to 17.2 nM.

For the compound `COC(=O)C1=C(CN2CCN3C(=O)N(c4ccc(-c5ccc(C(=O)O)cc5F)nc4)C[C@@H]3C2)NC(c2nccs2)=N[C@H]1c1ccc(F)cc1Cl` [Example 124, 4-(5-((S)-7-(((R)-6-(2-chloro-4-fluorophenyl)-5-(methoxycarbonyl)-2-(thiazol-2-yl)-3,6-dihydropyrimidin-4-yl)methyl)-3-oxohexahydroimidazo[1,5-a]pyrazin-2(3H)-yl)pyridin-2-yl)-3-fluorobenzoic acid], the EC50 was found to be 47.4 nM.

Take `CONC(=O)c1ccc(C#CCN2C[C@@H]3CN(CC4=C(C(=O)OC)[C@H](c5ccc(F)cc5Cl)N=C(c5nccs5)N4)CCN3C2=O)cc1` [Example 40, (R)-methyl 4-(2-chloro-4-fluorophenyl)-6-(((S)-2-(3-(4-(methoxycarbamoyl)phenyl)prop-2-yn-1-yl)-3-oxohexahydroimidazo[1,5-a]pyrazin-7(1H)-yl)methyl)-2-(thiazol-2-yl)-1,4-dihydropyrimidine-5-carboxylate]: the EC50 came to 8.2 nM.

For the compound `COC(=O)C1=C(CN2CCN3C(=O)N(CC#Cc4ccc(C(=O)O)c(OC)c4)C[C@@H]3C2)NC(c2nccs2)=N[C@H]1c1ccc(F)cc1Cl` [Example 52, 4-(3-((S)-7-(((R)-6-(2-chloro-4-fluorophenyl)-5-(methoxycarbonyl)-2-(thiazol-2-yl)-3,6-dihydropyrimidin-4-yl)methyl)-3-oxohexahydroimidazo[1,5-a]pyrazin-2(3H)-yl)prop-1-yn-1-yl)-2-methoxybenzoic acid], the EC50 came to 41.8 nM.

As to `COC(=O)C1=C(CN2CCN3C(=O)N(c4ccc(Oc5ccc(C(=O)O)cc5)cc4)C[C@@H]3C2)NC(c2nccs2)=N[C@H]1c1ccc(F)cc1Cl` [Example 6, 4-(4-((S)-7-(((R)-6-(2-chloro-4-fluorophenyl)-5-(methoxycarbonyl)-2-(thiazol-2-yl)-3,6-dihydropyrimidin-4-yl)methyl)-3-oxohexahydroimidazo[1,5-a]pyrazin-2(3H)-yl)phenoxy) benzoic acid], the EC50 was found to be 14 nM.

As to `COC(=O)C1=C(CN2CCN3C(=O)N(C(C)(C)c4ccc(-c5ccc(C(=O)O)cc5)cc4)C[C@@H]3C2)NC(c2nccs2)=N[C@H]1c1ccc(F)cc1Cl` (stereo in doubt) [Example 11, 4′-(2-((S)-7-(((R)-6-(2-chloro-4-fluorophenyl)-5-(methoxycarbonyl)-2-(thiazol-2-yl)-3,6-dihydropyrimidin-4-yl)methyl)-3-oxohexahydroimidazo[1,5-a]pyrazin-2(3H)-yl)prop-2-yl)-[1,1′-diphenyl]-4-carboxylic acid], the EC50 was found to be 32.5 nM.

Regarding `COC(=O)C1=C(CN2CCN3C(=O)N(c4ccc(-c5ccc(C(=O)O)cc5)cc4)C[C@@H]3C2)NC(c2nccs2)=N[C@H]1c1ccc(F)cc1Cl` [Example 12], the EC50 was 13 nM.

`COC(=O)C1=C(CN2CCN3C(=O)N(c4ccc(-c5ccc(C(=O)O)cc5F)cc4F)C[C@@H]3C2)NC(c2nccs2)=N[C@H]1c1ccc(F)cc1Cl` [Example 120]: the EC50 was found to be 25.5 nM.

As to `COC(=O)C1=C(CN2CCN3C(=O)N(c4ccc(C5(C(=O)O)CCCC5)cc4)C[C@@H]3C2)NC(c2nccs2)=N[C@H]1c1ccc(F)cc1Cl` [Example 29, 1-(4-((S)-7-(((R)-6-(2-chloro-4-fluorophenyl)-5-(methoxycarbonyl)-2-(thiazol-2-yl)-3,6-dihydroprimidin-4-yl)methyl)-3-oxohexahydroimidazo[1,5-a]pyrazin-2(3H)-yl)phenyl) cyclopentane carboxylic acid], the EC50 came to 6 nM.

System in a further data set: not listed separately
Description: Cytotoxicity test with CellTiter Glo. In kind it is cell-based. The settings on record: human, HepG2.2.15 cells, highest concentration 150 μM, read-out: CC50 values of the compounds of the invention. The protocol:
Test 2: Cytotoxicity and Selectivity Index
Methods of Testing Cytotoxicity and Selectivity Index
The serial diluted compound was added to a 384 wells plate at 50 μL HepG2.2.15 cell per well (3000 cells per well), the highest final concentration in the experiment is 150 μM (200 fold dilution). The plate was cultured at 37° C. in an incubator with CO2 for 4 days, and cytotoxicity of the compound was detected using CellTiter Glo agent.
The cytotoxicity of the compound was calculated using the following formulate, cytotoxicity (%)=100−(detection value/mean of DMSO control wells values×100) CC50 values were calculated by a four parametric nonlinear regression model using Graphpad Prism 5 software to manage concentration−cytotoxicity (%).
(In general: Cellular ATP, detected with luciferase, serves as a proxy for viable cell number.)
For `COC(=O)C1=C(CN2CCN3C(=O)N(c4ccc(Oc5ccc(OCC(F)(F)F)cc5)cc4)C[C@@H]3C2)NC(c2nccs2)=N[C@H]1c1ccc(F)cc1Cl` [Example 104, (R)-methyl 4-(2-chloro-4-fluorophenyl)-6-(((S)-3-oxo-2-(4-(4-(2,2,2-trifluoroethoxy)phenoxy)phenyl)hexahydroimidazo[1,5-a]pyrazin-7(1H)-yl)methyl)-2-(thiazol-2-yl)-1,4-dihydropyrimidine-5-carboxylate], the CC50 (commonly the concentration at which the toxic effect on the cells reaches its halfway point) at 4 days was above 150000 nM.

With `COC(=O)C1=C(CN2CCN3C(=O)N(c4ccc(Oc5ccc(C(=O)NCC(C)(C)C(=O)O)cc5)cc4)C[C@@H]3C2)NC(c2nccs2)=N[C@H]1c1ccc(F)cc1Cl` [Example 75, 3-(4-(4-((S)-7-(((R)-6-(2-chloro-4-fluorophenyl)-5-(methoxycarbonyl)-2-(thiazol-2-yl)-3,6-dihydropyrimidin-4-yl)methyl)-3-oxohexahydroimidazo[1,5-a]pyrazin-2(3H)-yl)phenoxy)benzamido)-2,2-dimethylpropanoic acid], the CC50 at 4 days is above 150000 nM.

Turning to `COC(=O)C1=C(CN2CCN3C(=O)N(c4cncc(Oc5ccc(C(=O)O)cc5F)c4)C[C@@H]3C2)NC(c2nccs2)=N[C@H]1c1ccc(F)cc1Cl` [Example 81, 4-((5-((S)-7-(((R)-6-(2-chloro-4-fluorophenyl)-5-(methoxycarbonyl)-2-(thiazol-2-yl)-3,6-dihydropyrimidin-4-yl)methyl)-3-oxohexahydroimidazo[1,5-a]pyrazin-2(3H)-yl)pyridin-3-yl)oxy)-3-fluorobenzoic acid], the CC50 at 4 days is above 150000 nM.

On to `COC(=O)C1=C(CN2CCN3C(=O)N(c4ccc(Oc5ccc(C(=O)NCc6ccccc6Cl)cc5)cc4)C[C@@H]3C2)NC(c2nccs2)=N[C@H]1c1ccc(F)cc1Cl` [Example 62, (R)-methyl 4-(2-chloro-4-fluorophenyl)-6-(((S)-2-(4-(4-((2-chlorobenzyl)carbamoyl)phenoxy)phenyl)-3-oxohexahydroimidazo[1,5-a]pyrazin-7(1H)-yl)methyl)-2-(thiazol-2-yl)-1,4-dihydropyrimidine-5-carboxylate], for which the CC50 at 4 days was above 150000 nM.
